Test: UV light induced fluorescence when mixed with freshly prepared neutral red
Format: physicochemical
Description: This concept is fully consistent with the finding that various mineral and organic substances can be formulated that similarly show fluorescence when mixed with neutral red and illuminated with UV light. Not all cellular energy delivering products show this reaction but may yet presumably still be are able to absorb energies; and further that such absorption may be facilitated using various types of dyes or other chemicals. The advantage of a current formulation that has been devised over the last several years is that it clearly fluoresces with neutral red and that a distant action can be easily observed in a distantly held neutral red indication solution. This action includes otherwise unexplained movements of fine particles within the neutral red solution and more strikingly the induced crystallization that occurs in the neutral red solution. […] The UV inducible fluorescence, or other form of energy emission, within the plastic bags will typically evoke some discernable fluorescence within at least some skin areas in most of the treated and symptomatic patients, consistent with an overall systemic activation of the body's ACE pathway. […] The liquid-in-a-bag format also allows for the addition of other materials that can further enhance the activation and/or fluorescence of the formulations being studied. […]

## CCN(CC)CC(=O)Nc1c(C)cccc1C [Lidocaine]
  fluorescence with neutral red: will not fluoresce

— patent US20090280193A1, “Enerceutical mediated activation of the Alternative Cellular Energy (ACE) pathway in the therapy of diseases” (priority 2008, published 2009)
